Results from PMC11472320, “Computationally Driven Discovery of a BCR-ABL1 Kinase Inhibitor with Activity in Multidrug-Resistant Chronic Myeloid Leukemia” (Journal of Medicinal Chemistry, 2024).
Each block holds one compound with its values, some of them ahead of it.

Tests used:
MDCKII-MDR1 cells [1] = conditions: cited from earlier work
mutant BCR-ABL1 kinases = test: Biochemical kinase inhibition, summary statements; parameters: species or system human; conditions: read-out: IC50 against mutant BCR-ABL1 kinases
Lipophilicity logD7.4 = assay type: physicochemical; conditions: pH 7.4
Aqueous solubility = assay type: physicochemical; conditions: pH 7.4
[2] = Metabolic stability in hepatocytes; assay type: in vitro ADME, human
Text: Metabolic stability in hepatocytes
Table S4. Hepatocyte details used in the hepatocyte stability assay.
Human Hepatocytes, Mixed-Gender BiolVT (Cat No. X008001)
Mouse Hepatocytes, Male-Gender BiolVT (Cat No. M005052)

[3] = Plasma protein binding by equilibrium dialysis; assay type: in vitro ADME; conditions: human plasma
in vitro [4] = conditions: dog, MDCK-MDR1
MDR1 (P-gp) = test: in vitro; conditions: dog, MDCK-MDR1
MDR1 = test: in vitro; conditions: dog, MDCK-MDR1
in vitro [5] = conditions: human, Caco-2
Caco-2 cells = test: Caco-2 permeability
MDCKII-MDR1 cells [6] = test: MDCKII-MDR1 permeability; conditions: Table S7
BCR-ABL1 wt = BCR-ABL1 wt (Homo sapiens, UniProt P00519); test: KinaseProfiler enzymatic radiometric kinase assay; conditions: read-out: Kinase IC50 BCR-ABL1 wt; [ATP] = 10 µM, n = 2
Sequence of BCR-ABL1 wt (P00519 27-1130 limits assumed): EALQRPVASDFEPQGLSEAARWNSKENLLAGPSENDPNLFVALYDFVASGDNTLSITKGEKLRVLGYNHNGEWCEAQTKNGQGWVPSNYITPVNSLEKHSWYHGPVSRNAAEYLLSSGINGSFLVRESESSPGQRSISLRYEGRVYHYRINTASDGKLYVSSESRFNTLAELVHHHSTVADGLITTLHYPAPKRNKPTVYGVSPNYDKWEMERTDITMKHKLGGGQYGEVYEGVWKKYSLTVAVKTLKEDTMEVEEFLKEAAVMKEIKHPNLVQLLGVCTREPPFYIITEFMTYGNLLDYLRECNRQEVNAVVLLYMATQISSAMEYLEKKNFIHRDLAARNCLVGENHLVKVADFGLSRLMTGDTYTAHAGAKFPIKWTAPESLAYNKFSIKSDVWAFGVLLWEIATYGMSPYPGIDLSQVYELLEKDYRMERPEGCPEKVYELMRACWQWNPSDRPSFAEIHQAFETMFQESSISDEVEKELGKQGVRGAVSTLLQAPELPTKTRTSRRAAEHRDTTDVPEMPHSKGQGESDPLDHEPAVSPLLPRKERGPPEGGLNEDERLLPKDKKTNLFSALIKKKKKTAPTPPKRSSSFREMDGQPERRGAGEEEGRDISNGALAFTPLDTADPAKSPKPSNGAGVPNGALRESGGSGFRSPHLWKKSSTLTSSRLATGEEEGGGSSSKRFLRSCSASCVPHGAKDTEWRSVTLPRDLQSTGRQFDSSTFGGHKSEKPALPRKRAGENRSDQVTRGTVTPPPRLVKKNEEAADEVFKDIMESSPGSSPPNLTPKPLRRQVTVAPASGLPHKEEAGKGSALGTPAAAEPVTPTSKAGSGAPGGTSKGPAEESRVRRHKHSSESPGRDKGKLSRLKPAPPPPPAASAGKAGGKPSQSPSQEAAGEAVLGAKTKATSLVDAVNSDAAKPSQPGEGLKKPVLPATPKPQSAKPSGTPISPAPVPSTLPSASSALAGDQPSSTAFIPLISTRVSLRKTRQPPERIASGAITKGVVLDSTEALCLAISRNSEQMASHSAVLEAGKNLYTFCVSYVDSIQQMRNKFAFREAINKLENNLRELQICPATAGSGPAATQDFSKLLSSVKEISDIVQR

cSRC wt = cSRC wt (Homo sapiens, UniProt P12931); test: KinaseProfiler enzymatic radiometric kinase assay
Sequence of cSRC wt (P12931 whole entry): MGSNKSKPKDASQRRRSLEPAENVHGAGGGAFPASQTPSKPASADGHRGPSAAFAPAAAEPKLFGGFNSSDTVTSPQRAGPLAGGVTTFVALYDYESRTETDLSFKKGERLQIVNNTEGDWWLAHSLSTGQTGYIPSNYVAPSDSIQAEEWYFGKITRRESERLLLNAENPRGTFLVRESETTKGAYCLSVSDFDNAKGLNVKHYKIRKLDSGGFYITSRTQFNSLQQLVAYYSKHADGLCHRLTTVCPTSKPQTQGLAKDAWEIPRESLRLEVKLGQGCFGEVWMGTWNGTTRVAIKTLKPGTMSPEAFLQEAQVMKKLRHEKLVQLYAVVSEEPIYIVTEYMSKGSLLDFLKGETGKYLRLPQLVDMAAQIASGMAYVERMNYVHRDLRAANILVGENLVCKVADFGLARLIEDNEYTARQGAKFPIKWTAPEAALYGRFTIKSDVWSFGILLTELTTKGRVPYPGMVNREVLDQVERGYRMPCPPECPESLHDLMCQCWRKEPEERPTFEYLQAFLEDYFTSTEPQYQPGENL

P-glycoprotein (P-gp) = conditions: Figure 1A; cited from earlier work

Compound: COc1cc2ncnc(Nc3ccc(F)c(Cl)c3)c2cc1OCCON1CCN(C)CC1 [6a]
MDCKII-MDR1 Efflux Ratio (MDCKII-MDR1 cells [1]): 8.7 | P-gp efflux status (MDCKII-MDR1 cells [1]): P-gp Substrate

IC50 (mutant BCR-ABL1 kinases): ≥ 0.015 µM | logD (Lipophilicity logD7.4): 2.6 | Aq. Sol. (Aqueous solubility): 29 µM | Remaining Percentages ([2]; 0.5 min): 100.00% | Remaining Percentages ([2]; 15 min): 97.02% | Remaining Percentages ([2]; 30 min): 95.67% | Remaining Percentages ([2]; 60 min): 80.41% | Remaining Percentages ([2]; 90 min): 67.22% | Remaining Percentages ([2]; 120 min): 54.89% | hepatocyte CLint ([2]; both sexes, human hepatocytes, read-out: HEPClint (H)): 10.3 µL/min/1e6 cells | t1/2 (H) ([2]; human hepatocytes): 2.243 h | fraction unbound ([3]; both sexes): 0.13 | recovery ([3]; both sexes): 87.8% | remaining at 6 h ([3]; both sexes, 6 h): 98.3% | %Unbound [3]: 12.97% | recovery (in vitro [4]): 93.1% | Papp A→B (MDR1 (P-gp)): 7.5 ×10⁻⁶ cm/s | Papp B→A (MDR1 (P-gp)): 54.4 ×10⁻⁶ cm/s | Papp A→B (MDR1): 7.53 ×10⁻⁶ cm/s | Papp B→A (MDR1): 54.4 ×10⁻⁶ cm/s | efflux ratio (MDR1): 7.3 | Papp A→B (in vitro [5]): 2.72 ×10⁻⁶ cm/s | Papp B→A (in vitro [5]): 33.6 ×10⁻⁶ cm/s | efflux ratio (in vitro [5]): 12.4 | recovery (in vitro [5]): 84.8% | Recovery% (BL-AP) (Caco-2 cells; Table S9): 92.56% | efflux ratio (Caco-2 cells; Table S9): 12.36 | Caco-2 Papp (a-b) (Caco-2 cells; a-b): 2.7 ×10⁻⁶ cm/s | Caco-2 Papp (b-a) (Caco-2 cells; b-a): 33.6 ×10⁻⁶ cm/s | Recovery% (BL-AP) (MDCKII-MDR1 cells [6]): 105.61% | efflux ratio (MDCKII-MDR1 cells [6]): 7.26 | IC50 (BCR-ABL1 wt): 0.019 µM | IC50 (cSRC wt): 0.034 µM
Compound: COc1cc2c(Nc3cccc(OC)c3F)c(C#N)cnc2cc1OCCON1CCN(C)CC1 [13a, 4-((2-Fluoro-3-methoxyphenyl)amino)-6-methoxy-7-(2-((4-methylpiperazin-1-yl)oxy)ethoxy)quinoline-3-carbonitrile]

Compound: COc1cc2ncnc(Nc3cccc(Cl)c3F)c2cc1OC(=O)N1CCN(C)C[C@H]1C [AZD3759]
MDCKII-MDR1 Efflux Ratio (MDCKII-MDR1 cells [1]): 0.4 | P-gp efflux status (MDCKII-MDR1 cells [1]): Not a P-gp Substrate

Compound: O=C(Nc1ccc(OC(F)(F)Cl)cc1)c1cnc(N2CC[C@@H](O)C2)c(-c2ccn[nH]2)c1 [Asciminib, asciminib]
P-gp efflux status (P-glycoprotein (P-gp)): P-gp Substrate

Compound: Cc1nc(Nc2ncc(C(=O)Nc3c(C)cccc3Cl)s2)cc(N2CCN(CCO)CC2)n1 [Dasatinib, dasatinib]
P-gp efflux status (P-glycoprotein (P-gp)): P-gp Substrate

recovery (in vitro [4]): 82.4% | Papp A→B (MDR1): 0.62 ×10⁻⁶ cm/s | Papp B→A (MDR1): 13.9 ×10⁻⁶ cm/s | efflux ratio (MDR1): 22.7 | Papp A→B (in vitro [5]): 0.22 ×10⁻⁶ cm/s | Papp B→A (in vitro [5]): 12.6 ×10⁻⁶ cm/s | efflux ratio (in vitro [5]): 58.6 | recovery (in vitro [5]): 89.9% | Recovery% (BL-AP) (Caco-2 cells; Table S9): 92.72% | Recovery% (BL-AP) (MDCKII-MDR1 cells [6]): 93.20%
Compound: C[C@H]1O[C@@H](O[C@H]2[C@@H](O)C[C@H](O[C@H]3[C@@H](O)C[C@H](O[C@H]4CC[C@@]5(C)[C@H](CC[C@@H]6[C@@H]5C[C@@H](O)[C@]5(C)[C@@H](C7=CC(=O)OC7)CC[C@]65O)C4)O[C@@H]3C)O[C@@H]2C)C[C@H](O)[C@@H]1O [Digoxin, reference compound]

Compound: Cc1ccc(NC(=O)c2ccc(CN3CCN(C)CC3)cc2)cc1Nc1nccc(-c2cccnc2)n1 [Imatinib, imatinib]
P-gp efflux status (P-glycoprotein (P-gp)): P-gp Substrate

recovery (in vitro [4]): 112% | Papp A→B (MDR1): 31.6 ×10⁻⁶ cm/s | Papp B→A (MDR1): 28.1 ×10⁻⁶ cm/s | efflux ratio (MDR1): 0.89 | Papp A→B (in vitro [5]): 18.8 ×10⁻⁶ cm/s | Papp B→A (in vitro [5]): 19.4 ×10⁻⁶ cm/s | recovery (in vitro [5]): 95.3% | Recovery% (BL-AP) (Caco-2 cells; Table S9): 95.54% | Recovery% (BL-AP) (MDCKII-MDR1 cells [6]): 99.15%
Compound: COCCc1ccc(OCC(O)CNC(C)C)cc1 (centres unmarked) [Metoprolol, reference compound]
